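48-hour exposure; five concentrations; linearly interpolated endpoints. The concentration for 50% growth inhibition is given as GI50. TGI: total growth inhibition.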
Tests used:
Assay in all cases: NCI-60 cell line screen, 48 h
[1] = tested on: NCI-H460 lung
[2] = tested on: HOP-62 NSCLC
[3] = tested on: NCI-H23 lung
[4] = tested on: HOP-92 NSCLC
[5] = tested on: TK-10 renal
[6] = tested on: PC-3 prostate
[7] = tested on: OVCAR-8 ovarian
[8] = tested on: IGROV1 ovarian
[9] = tested on: NCI/ADR-RES ovarian
[10] = tested on: SK-MEL-2 melanoma

| SMILES | TGI [1] [µM] | TGI [2] [µM] | TGI [3] [µM] | TGI [4] [µM] | TGI [5] [µM] | TGI [6] [µM] | TGI [7] [µM] | TGI [8] [µM] | TGI [9] [µM] | TGI [10] [µM] | GI50 [4] [µM] | GI50 [5] [µM] | GI50 [6] [µM] | GI50 [10] [µM] |
| --- | --- | --- | --- | --- | --- | --- | --- | --- | --- | --- | --- | --- | --- | --- |
| O=[N+]([O-])c1ccc(NC(=S)N=Nc2c(O)[nH]c3ccc([N+](=O)[O-])cc23)cc1 | 41.9 | 50.4 | 41.1 | 35.2 | 56.7 | 49.3 | > 100 | 40 | 48.6 | 35.8 | – | – | – | – |
| CCc1c(CNc2ccc(C(=O)NC(CC(=O)O)C(=O)O)cc2)ccc2nc(N)nc(N)c12 (centres undefined) | > 1000 | > 1000 | > 1000 | > 1000 | > 1000 | > 1000 | > 1000 | > 1000 | > 1000 | > 1000 | > 1000 | > 1000 | < 0.01 | > 1000 |
| O=C1NC2CCCCC2N=C1CC(=O)c1ccc(Br)cc1 (centres undefined) | > 100 | > 100 | > 100 | 65.8 | > 100 | > 100 | 19.8 | > 100 | > 100 | > 100 | – | – | – | – |
| COc1ccccc1C1Nn2c(nc3ccccc3c2=O)N1c1ccc(C)cc1 (centres undefined) | 16.3 | 20.2 | 29.3 | 23.1 | 22.7 | 10.8 | 17 | 19.8 | 23.6 | 25.3 | – | – | – | – |
| COc1cc(C(=O)Oc2ccc3c(c2)OCO3)cc(OC)c1OC | > 100 | > 100 | > 100 | > 100 | > 100 | > 100 | > 100 | > 100 | > 100 | > 100 | – | – | – | – |
| CN(C)c1ccc(/C=C(\NC(=O)c2ccccc2)c2nn(C)c(=O)o2)cc1 | > 100 | 38.1 | > 100 | > 100 | > 100 | > 100 | 82.9 | > 100 | 65.6 | > 100 | – | – | – | – |
| Cc1ccc2c(c1)-c1c(C#N)c(N)nc(-c3ccc(Cl)cc3)c1CCS2(=O)=O | > 100 | > 100 | > 100 | > 100 | > 100 | > 100 | > 100 | > 100 | 98.2 | > 100 | – | – | – | – |
| C/C=C(/C)C(=O)OC1CC(C)[C@H]2CC(=O)C(C)=C2CC1C(C)(C)OC(C)=O (some centres undefined) | 42.8 | 95 | > 100 | 78 | > 100 | > 100 | > 100 | > 100 | 71.7 | 27 | – | – | – | – |
| CN(C)CCCNC(=O)c1cc(NC(=O)c2cc(NC(=O)CCCn3c4ccccc4c4ccccc43)cn2C)cn1C | > 94 | 30.9 | 39.3 | 40.1 | 39.3 | > 56.3 | > 66.2 | > 75.9 | 53.2 | > 79.9 | – | – | – | – |
| COc1ccc(Nc2nc(N)c(C(=O)c3c[nH]c4ccccc34)s2)cc1 | 6.83 | > 71.4 | > 95 | 29.3 | > 30.7 | > 100 | > 100 | > 100 | 19.4 | > 72.5 | – | – | – | – |
| Cn1c(=O)c2c(nc3n(Cc4ccccc4)c(=O)c(NCCCBr)cn23)n(C)c1=O | > 100 | > 100 | > 100 | 58.5 | > 100 | > 100 | > 100 | > 100 | > 100 | > 100 | – | – | – | – |
| C1=C2C3=[N+](CCCCC3)CC2Cc2ccsc21 (centres undefined) | > 100 | > 100 | > 100 | > 100 | > 100 | > 100 | > 100 | > 100 | > 100 | > 100 | – | – | – | – |
| COc1ccc2nc(/C(N)=C\C#N)ccc2c1 | > 100 | > 100 | > 100 | > 100 | > 100 | > 100 | > 100 | > 100 | > 100 | > 100 | – | – | – | – |
| CCOc1ccc(Nc2nc(N)nc(N)c2N)cc1 | 98 | 79 | > 100 | > 100 | > 100 | > 100 | > 100 | 28.6 | > 100 | > 100 | – | – | – | – |
| CS(=O)(=O)Nc1ccc2c(c1)N(S(C)(=O)=O)CC2CCl (centres undefined) | > 100 | > 100 | > 100 | > 100 | > 100 | > 100 | > 100 | > 100 | > 100 | > 100 | – | – | – | – |
| Cc1cc(C)c(S(=O)(=O)N(CCCN)OCCCON(CCCN)S(=O)(=O)c2c(C)cc(C)cc2C)c(C)c1 | 3.18 | 4.02 | 4.66 | 5.27 | 16.5 | 3.45 | 11 | 3.86 | 36.4 | 3.29 | – | – | – | – |

| SMILES | TGI [1] [µM] | TGI [2] [µM] | TGI [3] [µM] | TGI [4] [µM] | TGI [5] [µM] | TGI [6] [µM] | TGI [7] [µM] | TGI [8] [µM] | TGI [9] [µM] | TGI [10] [µM] | GI50 [4] [µM] | GI50 [5] [µM] | GI50 [6] [µM] | GI50 [10] [µM] |
| --- | --- | --- | --- | --- | --- | --- | --- | --- | --- | --- | --- | --- | --- | --- |
| O=P(O)(O)c1ccccc1Oc1ccccc1 | > 100 | > 100 | > 100 | > 100 | > 100 | > 100 | > 100 | > 100 | > 100 | > 100 | – | – | – | – |
| CCC(CO)Nc1nc(NCc2ccccc2)c2ncn(C(C)C)c2n1 (centres undefined) | > 100 | 33.9 | 36.1 | 56.2 | > 84.6 | 37.1 | 57.5 | > 100 | 42.3 | 38.9 | – | – | – | – |
| CCC(O)(Cc1ccc(OC)cc1)c1ccc(OC)cc1 (centres undefined) | > 100 | > 100 | > 100 | > 100 | > 100 | > 100 | > 100 | > 100 | > 100 | > 100 | – | – | – | – |
| CSC(SC)=C(C(=O)O)P(=O)(O)O | > 100 | > 100 | > 100 | > 100 | > 100 | > 100 | > 100 | > 100 | > 100 | > 100 | – | – | – | – |
| Nc1nc(Cl)cc(NCC2(O)CC2)n1 | > 100 | > 100 | > 100 | > 100 | > 100 | > 100 | > 100 | > 100 | > 100 | > 100 | – | – | – | – |
| CCCCSc1nsc(N(C(=O)c2ccccc2)C(=O)c2ccccc2)n1 | 76.9 | > 100 | > 100 | 75 | > 100 | > 100 | > 100 | > 100 | > 100 | 71.1 | – | – | – | – |
| CSc1nc(NC(C)C)c2c(n1)Sc1nc3ccccc3n1N=C2 | 79.5 | 22.2 | 38.7 | 31.2 | 36.8 | > 100 | 28.8 | > 100 | 46.7 | 47.3 | – | – | – | – |
| COc1cccc2c1C(=O)c1c(O)c3c(c(O)c1C2=O)C[C@H](O)C[C@@H]3OC1CC(N)C(O)C(C)O1 (some centres undefined) | 13.7 | 10.5 | 3.18 | 17.6 | 7.15 | 12 | 3.64 | 12.4 | 62.3 | 5.41 | – | – | – | – |
| c1ccc2c(c1)Sc1nccc3ccnc-2c13 | 33.2 | > 100 | > 100 | > 100 | > 100 | > 100 | > 100 | > 100 | > 100 | > 100 | – | – | – | – |
| CN(C)CC1CCC/C(=C\c2ccc(OC(=O)c3ccc(Cl)cc3)cc2)C1=O (centres undefined) | 17.5 | 12.6 | 3.5 | 4.75 | 5.19 | 18.4 | 3.23 | 8.27 | 4.99 | 10.6 | – | – | – | – |
| N#C/C(=C/n1c(=S)[nH]c2ccc([N+](=O)[O-])cc21)C(N)=O | > 100 | > 100 | > 100 | > 100 | > 100 | > 100 | > 100 | > 100 | > 100 | > 100 | – | – | – | – |
| NC(=O)c1csc(C2(O)COC(CO)C2O)n1 (centres undefined) | > 100 | > 100 | > 100 | > 100 | > 100 | > 100 | > 100 | > 100 | > 100 | > 100 | – | – | – | – |
| Cc1[nH]c(=O)nc(NCCNCCO)c1C(=O)Nc1cccc2cc3ccccc3cc12 | > 100 | > 100 | > 100 | > 100 | > 100 | > 100 | > 100 | > 100 | > 100 | > 100 | – | – | – | – |
| CCn1c2ccc(C(=O)CCCN3CCCCC3)cc2c2cc(C(=O)CCCN3CCCCC3)ccc21 | 3.12 | 18.2 | 4.49 | 30.3 | 15.9 | 12.6 | 6.6 | 8.73 | 13.1 | 3.52 | – | – | – | – |
| O=C(OCCN=c1c2ccccc2ccc2ccccc12)c1ccccc1 | > 100 | > 100 | > 100 | > 100 | > 100 | > 100 | > 100 | > 100 | > 100 | > 100 | – | – | – | – |
| CC(C)c1cccc(C(C)C)c1NC(=O)/C(CC(=O)CC(c1ccccc1)c1c(O)c2ccccc2oc1=O)=N/O (centres undefined) | > 100 | > 100 | > 100 | > 100 | > 100 | > 100 | > 100 | > 100 | > 100 | > 100 | – | – | – | – |

Reference: PubChem BioAssay (NCI)
